According to patent US20240279202A1 (NURIX THERAPEUTICS, INC., priority 2021, published 2024):

Target: T1, ITK (Homo sapiens, UniProt Q08881)
T1 sequence (Q08881 1-620): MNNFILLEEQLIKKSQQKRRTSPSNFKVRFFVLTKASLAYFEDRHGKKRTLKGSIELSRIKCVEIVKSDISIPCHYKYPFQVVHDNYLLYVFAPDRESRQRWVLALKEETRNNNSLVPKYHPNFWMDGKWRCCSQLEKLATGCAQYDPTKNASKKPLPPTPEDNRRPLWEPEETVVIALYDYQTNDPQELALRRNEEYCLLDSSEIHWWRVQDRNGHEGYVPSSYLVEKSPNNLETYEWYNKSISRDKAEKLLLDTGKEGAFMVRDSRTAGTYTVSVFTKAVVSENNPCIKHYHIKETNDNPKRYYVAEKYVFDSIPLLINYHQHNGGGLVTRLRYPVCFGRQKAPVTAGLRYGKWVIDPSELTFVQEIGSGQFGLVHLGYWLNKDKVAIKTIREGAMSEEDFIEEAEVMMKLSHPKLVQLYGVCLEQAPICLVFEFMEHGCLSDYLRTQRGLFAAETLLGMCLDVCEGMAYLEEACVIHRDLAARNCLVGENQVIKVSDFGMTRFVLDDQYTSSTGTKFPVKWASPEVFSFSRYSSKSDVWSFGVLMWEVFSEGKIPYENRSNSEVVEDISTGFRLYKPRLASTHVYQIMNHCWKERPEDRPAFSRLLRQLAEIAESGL
Test: ITK degradation MSD (Meso Scale Discovery) assay
Assay type: cell-based
Design: either human Jurkat (Clone E6-1 ATCC TIB-152) or Motl4 (ATCC CRL-1552), were plated; endogenous in cells; host or cells: Jurkat clone E6-1 (ATCC TIB-152) or Molt4 (ATCC CRL-1552)
Conditions: Jurkat or Molt4 cells, 4 or 6 hrs
Outline: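 Human Jurkat or Molt4 cells in RPMI/10% FBS were treated 4 or 6 h […] with a 7-point, 5-fold dilution series (final 0.5% DMSO). Lysate ITK was quantified by MSD sandwich ECL immunoassay and expressed as % remaining versus DMSO. DC50 and Dmax came from four-parameter fits.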

Row | Compound | DC50 | Dmax
1 | CN(C(=O)CCN1CCN(c2ccc3c(c2)C(=O)N(C2CCC(=O)NC2=O)C3=O)CC1)c1ccc2cc(-c3n[nH]c4c3CCC(C)(C)C4)[nH]c2c1 (centres unmarked) [Compound 2, N-(2-(6,6-dimethyl-4,5,6,7-tetrahydro-1H-indazol-3-yl)-1H-indol-6-yl)-3-(4-(2-(2,6-dioxopiperidin-3-yl)-1,3-dioxoisoindolin-5-yl)piperazin-1-yl)-N-methylpropanamide] | 1.1 nM | 84%
2 | C[C@@H](C(=O)N(C)c1ccc2cc(-c3n[nH]c4c3CCC(C)(C)C4)[nH]c2c1)N1CCN(C[C@H]2CCN(c3ccc4c(c3)C(=O)N(C3CCC(=O)NC3=O)C4=O)C2)CC1 (stereo partly drawn) [Compound 33, (2S)—N-(2-(6,6-dimethyl-4,5,6,7-tetrahydro-1H-indazol-3-yl)-1H-indol-6-yl)-2-(4-(((3R)-1-(2-(2,6-dioxopiperidin-3-yl)-1,3-dioxoisoindolin-5-yl)pyrrolidin-3-yl)methyl)piperazin-1-yl)-N-methylpropanamide] | 1.6 nM | 87%
3 | CN(C(=O)CCC1CCN(c2ccc3c(c2)C(=O)N(C2CCC(=O)NC2=O)C3=O)C1)c1ccc2cc(-c3n[nH]c4c3CCC(C)(C)C4)[nH]c2c1 (centres unmarked) [Compound 1, N-(2-(6,6-dimethyl-4,5,6,7-tetrahydro-1H-indazol-3-yl)-1H-indol-6-yl)-3-(1-(2-(2,6-dioxopiperidin-3-yl)-1,3-dioxoisoindolin-5-yl)pyrrolidin-3-yl)-N-methylpropanamide] | 7 nM | 87%
4 | C[C@@H](C(=O)N(C)c1ccc2cc(-c3n[nH]c4c3CCC(C)(C)C4)[nH]c2c1)N1CCN(CC2CCN(c3ccc(C(=O)NC4CCC(=O)NC4=O)nc3)CC2)CC1 (stereo partly drawn) [Compound 7, 5-(4-((4-((S)-1-((2-(6,6-dimethyl-4,5,6,7-tetrahydro-1H-indazol-3-yl)-1H-indol-6-yl)(methyl)amino)-1-oxopropan-2-yl)piperazin-1-yl)methyl)piperidin-1-yl)-N-(2,6-dioxopiperidin-3-yl)picolinamide] | 10 nM | 83%
5 | C[C@@H](C(=O)N(C)c1ccc2cc(-c3n[nH]c4c3CCC(C)(C)C4)[nH]c2c1)N1CCN(C(=O)C2CN(C3CCN(c4ccc5c(c4)C(=O)N(C4CCC(=O)NC4=O)C5=O)CC3)C2)CC1 (stereo partly drawn) [Compound 34, (2S)—N-(2-(6,6-dimethyl-4,5,6,7-tetrahydro-1H-indazol-3-yl)-1H-indol-6-yl)-2-(4-(1-(1-(2-(2,6-dioxopiperidin-3-yl)-1,3-dioxoisoindolin-5-yl)piperidin-4-yl)azetidine-3-carbonyl)piperazin-1-yl)-N-methylpropanamide] | 1 nM | 86%
6 | CN(C(=O)C1CN(C2CCN(c3ccc4c(c3)C(=O)N(C3CCC(=O)NC3=O)C4=O)CC2)C1)c1ccc2cc(-c3n[nH]c4c3CCC(C)(C)C4)[nH]c2c1 (centres unmarked) [Compound 35, N-(2-(6,6-dimethyl-4,5,6,7-tetrahydro-1H-indazol-3-yl)-1H-indol-6-yl)-1-(1-(2-(2,6-dioxopiperidin-3-yl)-1,3-dioxoisoindolin-5-yl)piperidin-4-yl)-N-methylazetidine-3-carboxamide] | 8 nM | 83%
7 | C[C@@H](C(=O)N(C)c1ccc2cc(-c3n[nH]c4c3CCC(C)(C)C4)[nH]c2c1)N1CCN(CC2CCN(c3ccc4c(c3)n(C)c(=O)n4C3CCC(=O)NC3=O)CC2)CC1 (stereo partly drawn) [Compound 6, (2S)—N-(2-(6,6-dimethyl-4,5,6,7-tetrahydro-1H-indazol-3-yl)-1H-indol-6-yl)-2-(4-((1-(1-(2,6-dioxopiperidin-3-yl)-3-methyl-2-oxo-2,3-dihydro-1H-benzo[d]imidazol-5-yl)piperidin-4-yl)methyl)piperazin-1-yl)-N-methylpropanamide] | 0.0041 nM | 81%
